Data reported in PubChem BioAssay AID256 (DTP/NCI, 2004).
Inconclusive results and toxic doses are left out. Rule for the calls: active = survival T/C of 150% or more; inactive = T/C below 125% in these data. Residues, ends and D or L forms follow the SMILES beside them. *: point of attachment. Cbz = O=C(OCc1ccccc1)*; OtBu = CC(C)(C)O*

Test system: CD2F1 mice, L1210 leukemia ip, survival T/C
Assay: NCI In Vivo Anticancer Drug Screen. Data for tumor model L1210 Leukemia (intraperitoneal) in CD2F1 (CDF1) mice
Settings: endpoint: mean survival time, higher = longer survival
Method in brief: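 Compound-dosed mice with transplantable tumor versus matched vehicle controls; endpoint ratio T/C reported.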

[1] = dose: 100.0 mg/kg/injection, schedule: Q01DX009 (ip), vehicle: saline with Tween-80
[2] = dose: 100.0 mg/kg/injection, schedule: Q04DX003 (ip), vehicle: saline with Tween-80
[3] = dose: 200.0 mg/kg/injection, schedule: Q01DX009 (ip), vehicle: saline with Tween-80
[4] = dose: 200.0 mg/kg/injection, schedule: Q04DX003 (ip), vehicle: saline with Tween-80
[5] = dose: 400.0 mg/kg/injection, schedule: Q01DX009 (ip), vehicle: saline with Tween-80
[6] = dose: 400.0 mg/kg/injection, schedule: Q04DX003 (ip), vehicle: saline with Tween-80
[7] = dose: 100.0 mg/kg/injection, schedule: Q01DX001 (ip), vehicle: saline with Tween-80
[8] = dose: 200.0 mg/kg/injection, schedule: Q01DX001 (ip), vehicle: saline with Tween-80
[9] = dose: 400.0 mg/kg/injection, schedule: Q01DX001 (ip), vehicle: saline with Tween-80
[10] = dose: 100.0 mg/kg/injection, schedule: Q01DX001 (ip), vehicle: saline
[11] = dose: 200.0 mg/kg/injection, schedule: Q01DX001 (ip), vehicle: saline
[12] = dose: 75.0 mg/kg/injection, schedule: Q01DX001 (ip), vehicle: saline
[13] = dose: 150.0 mg/kg/injection, schedule: Q01DX001 (ip), vehicle: saline
[14] = dose: 300.0 mg/kg/injection, schedule: Q01DX001 (ip), vehicle: saline
[15] = dose: 25.0 mg/kg/injection, schedule: Q01DX009 (ip), vehicle: saline with Tween-80
[16] = dose: 50.0 mg/kg/injection, schedule: Q01DX009 (ip), vehicle: saline with Tween-80
[17] = dose: 100.0 mg/kg/injection, schedule: Q04DX002 (ip), vehicle: saline with Tween-80
[18] = dose: 200.0 mg/kg/injection, schedule: Q04DX002 (ip), vehicle: saline with Tween-80

Measured: T/C

OC(c1ccccc1)(c1ccccc1)c1ccccc1C(O)(c1ccccc1)c1ccccc1
inactive: dose: 100.0 mg/kg/injection, schedule: Q01DX001 (ip), vehicle: Klucel (hydroxypropylcellulose) (HPC) 90 % of control | dose: 200.0 mg/kg/injection, schedule: Q01DX001 (ip), vehicle: Klucel (hydroxypropylcellulose) (HPC) 90 % of control

COC(=O)c1ccccc1Nc1c2ccc(Cl)cc2nc2c1c(C)nn2C
inactive: [1] 96 % of control | [2] 101 % of control | [3] 100 % of control | [4] 95 % of control | [5] 97 % of control | [6] 106 % of control

CC(=O)NCc1ccc2c(c1)OCO2
inactive: [7] 98 % of control | [8] 111 % of control | [9] 106 % of control

CN(C)c1ccc(NS(=O)(=O)c2ccccc2)cc1
inactive: [7] 103 % of control | [8] 98 % of control | [9] 97 % of control

Nc1nc(N)c(-c2cccc(Cl)c2)c(COc2ccc(NC(=O)Nc3cccc(S(=O)(=O)F)c3)cc2)n1
inactive: dose: 37.5 mg/kg/injection, schedule: Q01DX001 (ip), vehicle: saline with Tween-80 100 % of control | dose: 75.0 mg/kg/injection, schedule: Q01DX001 (ip), vehicle: saline with Tween-80 91 % of control | dose: 150.0 mg/kg/injection, schedule: Q01DX001 (ip), vehicle: saline with Tween-80 92 % of control

CN(C)/N=N\c1ncn(C2OC(CO)C(O)C2O)c1C(N)=O (configuration not stated)
inactive: dose: 100.0 mg/kg/injection, schedule: Q01DX005 (ip), vehicle: saline 123 % of control

CCOC(=O)Nc1cc2c3ccccc3ncc2c2ccccc12
inactive: dose: 25.0 mg/kg/injection, schedule: Q04DX003 (ip), vehicle: saline with Tween-80 94 % of control | dose: 50.0 mg/kg/injection, schedule: Q04DX003 (ip), vehicle: saline with Tween-80 86 % of control | [2] 87 % of control | [4] 89 % of control | [6] 101 % of control

CN(C)c1ccc(/C=N/N=C(/N)N[N+](=O)[O-])cc1
inactive: [10] 94 % of control | [11] 97 % of control

CCN(CC)CCNCCCNCCN(CC)CC
inactive: dose: 100.0 mg/kg/injection, schedule: Q01DX009 (ip), vehicle: saline 92 % of control | [2] 98 % of control | dose: 200.0 mg/kg/injection, schedule: Q01DX009 (ip), vehicle: saline 92 % of control | [4] 95 % of control | dose: 400.0 mg/kg/injection, schedule: Q01DX009 (ip), vehicle: saline 87 % of control | [6] 95 % of control

Nc1nc(CCCCc2ccccc2)cc(=O)[nH]1
inactive: [2] 93 % of control | [4] 89 % of control | [6] 91 % of control

CCCCOC(=O)c1ccccc1C(=O)O.[Cu+2]
inactive: dose: 6.25 mg/kg/injection, schedule: Q01DX001 (ip), vehicle: saline with Tween-80 100 % of control | dose: 12.5 mg/kg/injection, schedule: Q01DX001 (ip), vehicle: saline with Tween-80 96 % of control | dose: 25.0 mg/kg/injection, schedule: Q01DX001 (ip), vehicle: saline with Tween-80 103 % of control

CCC(C)C(NC(=O)OCc1ccccc1)C(=O)NC(C(=O)NC(CCC(=O)OC(C)(C)C)C(=O)OC)C(C)C (stereo not drawn) (Cbz-Ile-Val-Glu(OtBu)-OMe; configuration not given here)
inactive: dose: 100.0 mg/kg/injection, schedule: Q04DX003 (ip), vehicle: saline sonified 88 % of control | dose: 400.0 mg/kg/injection, schedule: Q04DX003 (ip), vehicle: saline sonified 92 % of control

COc1cc2c(cc1OC)C(Cc1ccccc1NC(=O)c1ccc(C(=O)Nc3ccccc3CC3c4cc(OC)c(OC)cc4CCN3C)cc1)N(C)CC2 (configuration not stated)
inactive: [10] 97 % of control | [11] 94 % of control | dose: 400.0 mg/kg/injection, schedule: Q01DX001 (ip), vehicle: saline 91 % of control

CC(C)NC(=O)C1C2CCC(CC2)C1C(=O)NC(C)C (configuration not stated)
inactive: [2] 98 % of control | [4] 98 % of control | [6] 95 % of control

O=CC(O)C(O)C(OC1OC(CO)C(OC2OC(CO)C(O)C(O)C2O)C(O)C1O)C(O)CO (configuration not stated)
inactive: [1] 98 % of control | [3] 95 % of control | [5] 95 % of control

COC(=O)C1C2OC(C(Br)C2Br)C1C(=O)OC (configuration not stated)
inactive: [1] 100 % of control | [2] 97 % of control | [3] 92 % of control | [4] 93 % of control | [5] 100 % of control | [6] 92 % of control

Cc1nnn2ccccc12
inactive: [10] 95 % of control

CCCCOS(=O)(=O)c1ccc(N)cc1
inactive: [2] 92 % of control | [4] 98 % of control | [6] 97 % of control

OCC1c2ccc(Cl)cc2Nc2ccc(Cl)cc21 (configuration not stated)
inactive: [2] 93 % of control | [4] 89 % of control | [6] 91 % of control

CSc1cc(C)n2nnnc2n1
inactive: [10] 101 % of control

COC1OC(COC(C)=O)C(n2cnc3c2c(=O)n(C)c(=O)n3C)C=C1NC(C)=O (configuration not stated)
inactive: dose: 12.5 mg/kg/injection, schedule: Q01DX005 (ip), vehicle: distilled water + Tween-80 94 % of control | dose: 25.0 mg/kg/injection, schedule: Q01DX005 (ip), vehicle: distilled water + Tween-80 96 % of control | dose: 50.0 mg/kg/injection, schedule: Q01DX005 (ip), vehicle: distilled water + Tween-80 90 % of control | dose: 100.0 mg/kg/injection, schedule: Q01DX005 (ip), vehicle: distilled water + Tween-80 94 % of control | dose: 200.0 mg/kg/injection, schedule: Q01DX005 (ip), vehicle: distilled water + Tween-80 108 % of control

CC(C)CCC(C)C1CCC2C3CC([N+](=O)[O-])=C4CC(OC(=O)c5ccccc5)CCC4(C)C3CCC12C (configuration not stated)
inactive: [2] 102 % of control | [4] 92 % of control | [6] 92 % of control

O=C1CCCCCC2CC12 (configuration not stated)
inactive: [1] 94 % of control | [3] 102 % of control | [5] 94 % of control

O=C(/C=C1/OCCN1C(=O)Nc1ccccc1)Nc1ccccc1
inactive: [2] 107 % of control | [4] 103 % of control | [6] 97 % of control

COC1CC2C3CCC4(OC5CC(C)CN(C(C)=O)C5C4C)C(C)=C3C(=O)C2C2(C)CCC3CC312 (configuration not stated)
inactive: [2] 106 % of control | [4] 101 % of control | [6] 104 % of control

CC(C)(CNC1CCCCC1)OC(=O)c1ccc([N+](=O)[O-])cc1
inactive: [12] 94 % of control | [13] 99 % of control | [14] 94 % of control

Cc1cccc(C)c1N=NN(C)C
inactive: dose: 6.25 mg/kg/injection, schedule: Q01DX009 (ip), vehicle: saline with Tween-80 107 % of control | dose: 12.5 mg/kg/injection, schedule: Q01DX009 (ip), vehicle: other 90 % of control | dose: 12.5 mg/kg/injection, schedule: Q01DX009 (ip), vehicle: saline with Tween-80 104 % of control | dose: 25.0 mg/kg/injection, schedule: Q01DX009 (ip), vehicle: other 100 % of control | [15] 118 % of control

CN(C)CCNCCN(C)C
inactive: [12] 100 % of control | [13] 100 % of control | [14] 102 % of control

Cc1c([N+](=O)[O-])cc2c(c1[N+](=O)[O-])C(C)(C)CC2(C)C
inactive: [1] 100 % of control | [2] 96 % of control | [3] 98 % of control | [4] 105 % of control | [5] 96 % of control | [6] 94 % of control

CC(C)C(=O)C1CCCCC1
inactive: [16] 103 % of control | [1] 95 % of control | [3] 95 % of control

CCC(=O)OC(=N)C(=N)OC(=O)CC
inactive: dose: 25.0 mg/kg/injection, schedule: Q04DX002 (ip), vehicle: saline with Tween-80 98 % of control | dose: 50.0 mg/kg/injection, schedule: Q04DX002 (ip), vehicle: saline with Tween-80 98 % of control | [17] 98 % of control | [18] 95 % of control

CCCCCCCCOc1ccc(Cl)cc1Cl
inactive: [17] 96 % of control | [18] 104 % of control | dose: 400.0 mg/kg/injection, schedule: Q04DX002 (ip), vehicle: saline with Tween-80 104 % of control

NS(=O)(=O)C1CCC(Cl)NC1 (configuration not stated)
inactive: [2] 100 % of control | [4] 96 % of control | [6] 102 % of control

C/C(=C\Cl)CNC(C)C
inactive: [15] 101 % of control | [16] 100 % of control | dose: 100.0 mg/kg/injection, schedule: Q01DX001 (ip), vehicle: acetone 98 % of control

O/N=C\C[n+]1cc2ccccc2cc1/C=N\O
inactive: dose: 12.5 mg/kg/injection, schedule: Q04DX003 (ip), vehicle: saline 93 % of control | dose: 25.0 mg/kg/injection, schedule: Q04DX003 (ip), vehicle: saline 101 % of control | dose: 50.0 mg/kg/injection, schedule: Q04DX003 (ip), vehicle: saline 90 % of control

COc1ccc(OC)c(C2N(Cc3ccc(N(C)C)cc3)CCCN2Cc2ccc(N(C)C)cc2)c1
inactive: [2] 90 % of control | [4] 87 % of control
